pIC50: −log10 of the molar value. Entries after “also recorded” stand apart in the source; their conditions may differ.
Assays:
Aurora A = biological target: T1, Aurora A (Homo sapiens, UniProt O14965); assay: Aurora A Inhibition Assay (Z-Lyte); assay type: biochemical; details: 20 μM ATP, 12 nM Aurora A; read-out: Aurora A IC50 Ranges
T1 construct: purchased Invitrogen PV3612
T1 sequence (O14965 1-403): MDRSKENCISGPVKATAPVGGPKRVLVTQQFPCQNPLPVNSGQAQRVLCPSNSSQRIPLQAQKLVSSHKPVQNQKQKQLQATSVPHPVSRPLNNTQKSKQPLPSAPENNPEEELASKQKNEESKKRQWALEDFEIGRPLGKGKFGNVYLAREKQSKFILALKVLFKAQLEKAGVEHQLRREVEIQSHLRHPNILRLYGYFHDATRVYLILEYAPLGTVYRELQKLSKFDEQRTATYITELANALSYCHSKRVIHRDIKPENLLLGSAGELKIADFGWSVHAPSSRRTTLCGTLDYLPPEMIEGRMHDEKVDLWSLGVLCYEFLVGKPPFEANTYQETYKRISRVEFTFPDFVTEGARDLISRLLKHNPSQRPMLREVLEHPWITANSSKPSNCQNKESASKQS
Procedure: (§1) Aurora A inhibition was determined using the Z-Lyte assay kit from Invitrogen. The assay was performed using the recommended manufacturer's instructions with 20 μM ATP and 12 nM Aurora A (Invitrogen cat #PV3612). The % inhibition values were determined according to the manufacturer's directions and IC50 values were obtained using a non-linear 4 point logistic curve fit (XLfit4, IDBS)

Ret = Ret (Homo sapiens, UniProt P07949); assay: Millipore kinase assay, radiolabelled phosphopeptide filter binding, IC50 estimate; assay type: biochemical; design: purchased Millipore (assay service); details: estimated from inhibition at three compound concentrations; ATP at the Km
Procedure: (§2) Kinase assays at Millipore were performed using a radiolabelled phosphopeptide filter binding detection system, in duplicate, at each compound concentration. The ATP substrate concentration in the reactions was at the Km for each enzyme.
(§3) To allow for a more direct comparison of compound inhibition, an IC50 value was estimated from the inhibition determined at three compound concentrations. Several assumptions were made to allow this calculation using a 4 parameter non linear curve fit model, including full inhibition set at 100%, no inhibition set to 0%, and a curve fit parameter set at 1. The inflection point was reported as the estimated IC50.

Lyn = Lyn (Homo sapiens, UniProt P07948); assay: as above; assay type: biochemical; design: purchased Millipore (assay service); details: estimated from inhibition at three compound concentrations; ATP at the Km
Procedure: as §2, §3

TRKA = TRKA (Homo sapiens, UniProt P04629); assay: as above; assay type: biochemical; design: purchased Millipore (assay service); details: estimated from inhibition at three compound concentrations; ATP at the Km
Procedure: as §2, §3

Abl = Abl (Homo sapiens, UniProt P00519); assay: as above; assay type: biochemical; design: purchased Millipore (assay service); details: estimated from inhibition at three compound concentrations; ATP at the Km
Procedure: as §2, §3

KDR = biological target: T2, KDR (Homo sapiens, UniProt P35968); assay: as above; assay type: biochemical; details: estimated from inhibition at three compound concentrations; ATP at the Km
T2 construct: purchased Millipore (assay service)
Procedure: as §2, §3

PDGFRβ = biological target: T3, PDGFRβ (Homo sapiens, UniProt P09619); assay: as above; assay type: biochemical; details: estimated from inhibition at three compound concentrations; ATP at the Km
T3 construct: purchased Millipore (assay service)
Procedure: as §2, §3

FLT-1 = biological target: T4, FLT-1 (Homo sapiens, UniProt P17948); assay: as above; assay type: biochemical; details: estimated from inhibition at three compound concentrations; ATP at the Km
T4 construct: purchased Millipore (assay service)
Procedure: as §2, §3

FGFR1 = assay: as above; assay type: biochemical; details: estimated from inhibition at three compound concentrations; ATP at the Km
Procedure: as §2, §3

HUV-EC-C cells = assay: In Vitro Angiogenesis Assay (tube formation); assay type: cell-based; details: 4 hr incubation, 8,000 cells per well, FIG. 1
Procedure: HUV-EC-C cells were obtained from the American Type Culture Collection (ATCC, CRL-1730), and were used at early passage for the assay. The in vitro Angiogenesis Assay Kit (Chemicon) was used according to the manufacturer's recommendation. An ice-cold mixture of ECMatrix was transferred into a precooled 96-well plate. After the matrix solution had solidified (>1 hr incubation at 37° C.), 8,000 cells were mixed with the appropriate inhibitor concentration (in 100 microliters EGM-2) and plated into each well. After incubation at 37° C. for 4 hr, tube formation was inspected. Two methods, pattern recognition and branch point counting, were used to quantify the progression of angiogenesis and expressed as a percentage of the control tube count (FIG. 1).

PLK2 = biological target: T5, PLK2 (Homo sapiens, UniProt Q9NYY3); assay: PLK2 Inhibition Assay (Z-Lyte); assay type: biochemical; details: 10 μM compound; read-out: PLK2 relative inhibition percentage at a dose of 10 μM
T5 construct: purchased Invitrogen PV4204
Procedure: as §1, with “PLK2” for “Aurora A”, “Invitrogen (cat #PV3802).” for “Invitrogen.”, “60” for “20”, “133” for “12”, “#PV4204).” for “#PV3612).”

human PLK4 = biological target: T6, human PLK4 (Homo sapiens, UniProt O00444); assay: PLK4 Inhibition Assay (indirect ELISA); assay type: biochemical; details: 15 μM ATP, 4 nM GST-PLK4; read-out: PLK4 IC50 Ranges
T6 construct: amino terminal GST fusion of residues 1-391 of human PLK4; made in house; host or cells: E. coli
T6 sequence (O00444 1-391): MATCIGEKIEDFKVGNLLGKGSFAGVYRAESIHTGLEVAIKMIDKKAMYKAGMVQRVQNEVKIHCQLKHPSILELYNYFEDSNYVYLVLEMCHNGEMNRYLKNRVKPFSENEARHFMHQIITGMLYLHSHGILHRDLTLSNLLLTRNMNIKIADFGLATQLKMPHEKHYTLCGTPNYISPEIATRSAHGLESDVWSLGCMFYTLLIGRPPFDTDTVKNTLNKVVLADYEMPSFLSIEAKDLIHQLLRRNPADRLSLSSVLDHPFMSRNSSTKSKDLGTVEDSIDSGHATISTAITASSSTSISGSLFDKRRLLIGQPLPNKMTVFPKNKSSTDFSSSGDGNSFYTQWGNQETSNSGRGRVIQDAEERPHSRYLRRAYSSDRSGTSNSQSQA
Outline: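 IC50 values, from 4-point logistic fitting, reflect remaining activity measured by indirect ELISA. Enzyme was GST-PLK4 treated with lambda phosphatase and given a 15-minute pre-incubation with compound before ATP start.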

Aurora B = biological target: T7, Aurora B (Homo sapiens, UniProt Q96GD4); assay: Aurora B Inhibition Assay (Z-Lyte); assay type: biochemical; details: 128 μM ATP, 28 nM Aurora B; read-out: Aurora B IC50 Ranges
T7 construct: purchased Invitrogen PV3970
Procedure: as §1, with “Aurora B” for “Aurora A”, “with 128” for “with 20”, “and 28” for “and 12”, “cat #PV3970).” for “cat #PV3612).”

SW620 colon cancer cells = assay: Cell growth inhibition, Sulforhodamine B assay (SRB); assay type: cell-based; details: Homo sapiens, SW-620, 120 h, 5 days culture, read-out: Cell Line GI50 Range, SW-620
Outline: (§4)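 Cells seeded 24 h before compound addition, then exposed to 10 nM–50 μM final compound in DMEM + 10% FBS for 5 days. Growth measured by TCA fixation, SRB staining and absorbance at 570 nm; % inhibition relative to DMSO-only cells, with GI50 fitted for cytotoxic compounds.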

[1] = tested on: MCF-7 luminal breast cancer cell line; assay: as above; assay type: cell-based; details: Homo sapiens, MCF7, 120 h; 5 days culture, SRB; read-out: Cell Line GI50 Range, MCF-7
Outline: as §4

[2] = tested on: human mammary epithelial primary cells (HMEC); assay: as above; assay type: cell-based; details: 120 h, 5 days culture, read-out: Cell Line GI50 Range, HMEC
Outline: as §4

[3] = tested on: HCC1954 basal breast cancer cell line; assay: as above; assay type: cell-based; details: Homo sapiens, HCC1954, 120 h, 5 days culture, read-out: Cell Line GI50 Range, HCC-1954
Outline: as §4

A549 lung cancer cells = assay: as above; assay type: cell-based; details: Homo sapiens, A549, 120 h, 5 days culture, read-out: Cell Line GI50 Range, A-549
Outline: as §4

[4] = tested on: MDA-MB-468 basal breast cancer cell line; assay: as above; assay type: cell-based; details: Homo sapiens, MDA-MB-468, 120 h; 5 days culture, SRB; read-out: Cell Line GI50 Range, MDA-MB-468
Outline: as §4

PLK1 = biological target: T8, PLK1 (Homo sapiens, UniProt P53350); assay: PLK1 Inhibition Assay (Z-Lyte); assay type: biochemical; details: 10 μM compound; read-out: PLK1 relative inhibition percentage at a dose of 10 μM
T8 construct: purchased Invitrogen PV3501
Procedure: PLK1 inhibition was determined using the Z-Lyte assay kit from Invitrogen (cat #PV3802). […] The % inhibition values were determined according to the manufacturer's directions and IC50 values were obtained using a non-linear 4 point logistic curve fit (XLfit4, IDBS)

T7 sequence (Q96GD4 whole entry): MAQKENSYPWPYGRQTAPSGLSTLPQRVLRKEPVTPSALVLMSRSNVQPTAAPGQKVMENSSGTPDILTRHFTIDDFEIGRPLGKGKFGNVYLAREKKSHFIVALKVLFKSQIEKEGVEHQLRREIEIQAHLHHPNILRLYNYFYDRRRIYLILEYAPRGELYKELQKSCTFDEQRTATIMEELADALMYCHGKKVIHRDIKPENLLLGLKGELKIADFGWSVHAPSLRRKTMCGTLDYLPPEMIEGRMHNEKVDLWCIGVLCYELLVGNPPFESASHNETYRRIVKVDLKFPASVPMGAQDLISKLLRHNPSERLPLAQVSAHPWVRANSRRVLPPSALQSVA
T5 sequence (Q9NYY3 whole entry): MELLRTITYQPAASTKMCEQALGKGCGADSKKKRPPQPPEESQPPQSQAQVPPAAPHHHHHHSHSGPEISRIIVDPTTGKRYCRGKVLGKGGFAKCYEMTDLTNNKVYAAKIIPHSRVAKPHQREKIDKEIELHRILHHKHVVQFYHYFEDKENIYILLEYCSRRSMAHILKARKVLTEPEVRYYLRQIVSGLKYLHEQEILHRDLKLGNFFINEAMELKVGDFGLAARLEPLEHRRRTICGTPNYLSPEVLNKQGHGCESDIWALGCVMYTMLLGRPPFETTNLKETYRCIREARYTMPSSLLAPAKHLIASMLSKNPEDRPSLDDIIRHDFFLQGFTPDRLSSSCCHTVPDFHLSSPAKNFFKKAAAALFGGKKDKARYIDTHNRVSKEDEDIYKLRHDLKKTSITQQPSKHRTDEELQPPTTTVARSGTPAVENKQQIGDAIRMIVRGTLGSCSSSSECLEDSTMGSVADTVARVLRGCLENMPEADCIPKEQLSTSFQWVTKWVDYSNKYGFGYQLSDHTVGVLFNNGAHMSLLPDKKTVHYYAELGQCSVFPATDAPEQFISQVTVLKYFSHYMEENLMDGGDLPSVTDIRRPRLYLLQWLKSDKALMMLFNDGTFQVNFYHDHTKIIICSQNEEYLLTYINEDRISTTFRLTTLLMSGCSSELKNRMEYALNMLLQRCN
Sequence of TRKA (P04629 33-796): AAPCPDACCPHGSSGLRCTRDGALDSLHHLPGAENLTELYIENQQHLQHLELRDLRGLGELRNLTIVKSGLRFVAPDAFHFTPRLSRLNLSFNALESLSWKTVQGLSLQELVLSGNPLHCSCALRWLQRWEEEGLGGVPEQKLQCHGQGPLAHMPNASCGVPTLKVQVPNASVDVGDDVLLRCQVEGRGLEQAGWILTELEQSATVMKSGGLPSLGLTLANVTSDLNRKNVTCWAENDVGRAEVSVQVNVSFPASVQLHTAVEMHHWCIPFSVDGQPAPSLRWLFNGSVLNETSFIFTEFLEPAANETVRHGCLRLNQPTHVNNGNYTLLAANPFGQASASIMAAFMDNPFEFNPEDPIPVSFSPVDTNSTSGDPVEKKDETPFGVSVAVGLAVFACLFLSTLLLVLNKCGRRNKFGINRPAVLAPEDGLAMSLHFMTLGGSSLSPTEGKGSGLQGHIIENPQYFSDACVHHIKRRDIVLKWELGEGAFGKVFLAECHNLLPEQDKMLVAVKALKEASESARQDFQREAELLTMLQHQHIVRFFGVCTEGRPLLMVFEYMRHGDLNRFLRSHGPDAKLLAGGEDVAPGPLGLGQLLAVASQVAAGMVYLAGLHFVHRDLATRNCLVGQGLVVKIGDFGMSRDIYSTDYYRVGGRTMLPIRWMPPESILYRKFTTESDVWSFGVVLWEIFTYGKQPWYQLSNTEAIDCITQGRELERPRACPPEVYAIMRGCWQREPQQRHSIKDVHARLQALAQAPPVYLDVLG
T2 sequence (P35968 20-1356): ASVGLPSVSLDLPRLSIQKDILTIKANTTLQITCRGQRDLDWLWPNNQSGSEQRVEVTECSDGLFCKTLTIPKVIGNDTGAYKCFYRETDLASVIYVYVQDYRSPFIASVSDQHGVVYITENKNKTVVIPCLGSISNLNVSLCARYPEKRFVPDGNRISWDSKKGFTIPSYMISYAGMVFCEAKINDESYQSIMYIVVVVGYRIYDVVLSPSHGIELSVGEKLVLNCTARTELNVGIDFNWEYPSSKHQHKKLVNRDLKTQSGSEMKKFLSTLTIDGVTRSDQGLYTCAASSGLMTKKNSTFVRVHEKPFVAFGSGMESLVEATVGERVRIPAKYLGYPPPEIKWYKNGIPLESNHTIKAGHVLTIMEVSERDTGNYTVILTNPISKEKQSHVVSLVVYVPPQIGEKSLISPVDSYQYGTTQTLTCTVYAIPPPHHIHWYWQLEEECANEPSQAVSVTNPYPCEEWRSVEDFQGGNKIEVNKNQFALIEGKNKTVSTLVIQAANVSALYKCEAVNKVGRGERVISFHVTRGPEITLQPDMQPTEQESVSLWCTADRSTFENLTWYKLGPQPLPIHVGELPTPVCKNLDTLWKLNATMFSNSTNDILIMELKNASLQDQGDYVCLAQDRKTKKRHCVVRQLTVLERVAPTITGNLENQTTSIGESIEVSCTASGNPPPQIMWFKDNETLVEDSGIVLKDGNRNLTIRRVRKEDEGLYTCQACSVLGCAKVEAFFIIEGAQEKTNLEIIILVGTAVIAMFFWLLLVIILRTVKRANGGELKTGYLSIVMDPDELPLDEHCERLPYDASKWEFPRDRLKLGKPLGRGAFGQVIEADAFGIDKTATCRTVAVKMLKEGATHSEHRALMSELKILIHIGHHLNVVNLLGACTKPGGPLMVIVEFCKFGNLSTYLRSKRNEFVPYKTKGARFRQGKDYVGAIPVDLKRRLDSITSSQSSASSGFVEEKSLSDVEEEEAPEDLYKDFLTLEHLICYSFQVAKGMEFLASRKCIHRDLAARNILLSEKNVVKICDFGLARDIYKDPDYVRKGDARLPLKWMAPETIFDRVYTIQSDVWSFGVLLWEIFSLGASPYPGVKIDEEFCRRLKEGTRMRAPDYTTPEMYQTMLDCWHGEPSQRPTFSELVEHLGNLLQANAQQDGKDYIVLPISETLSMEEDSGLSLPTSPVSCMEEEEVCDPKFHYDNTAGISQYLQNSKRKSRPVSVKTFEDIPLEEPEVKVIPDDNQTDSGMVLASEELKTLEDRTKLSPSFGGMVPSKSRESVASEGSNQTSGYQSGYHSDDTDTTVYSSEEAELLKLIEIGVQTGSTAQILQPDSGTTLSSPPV
T3 sequence (P09619 33-1106): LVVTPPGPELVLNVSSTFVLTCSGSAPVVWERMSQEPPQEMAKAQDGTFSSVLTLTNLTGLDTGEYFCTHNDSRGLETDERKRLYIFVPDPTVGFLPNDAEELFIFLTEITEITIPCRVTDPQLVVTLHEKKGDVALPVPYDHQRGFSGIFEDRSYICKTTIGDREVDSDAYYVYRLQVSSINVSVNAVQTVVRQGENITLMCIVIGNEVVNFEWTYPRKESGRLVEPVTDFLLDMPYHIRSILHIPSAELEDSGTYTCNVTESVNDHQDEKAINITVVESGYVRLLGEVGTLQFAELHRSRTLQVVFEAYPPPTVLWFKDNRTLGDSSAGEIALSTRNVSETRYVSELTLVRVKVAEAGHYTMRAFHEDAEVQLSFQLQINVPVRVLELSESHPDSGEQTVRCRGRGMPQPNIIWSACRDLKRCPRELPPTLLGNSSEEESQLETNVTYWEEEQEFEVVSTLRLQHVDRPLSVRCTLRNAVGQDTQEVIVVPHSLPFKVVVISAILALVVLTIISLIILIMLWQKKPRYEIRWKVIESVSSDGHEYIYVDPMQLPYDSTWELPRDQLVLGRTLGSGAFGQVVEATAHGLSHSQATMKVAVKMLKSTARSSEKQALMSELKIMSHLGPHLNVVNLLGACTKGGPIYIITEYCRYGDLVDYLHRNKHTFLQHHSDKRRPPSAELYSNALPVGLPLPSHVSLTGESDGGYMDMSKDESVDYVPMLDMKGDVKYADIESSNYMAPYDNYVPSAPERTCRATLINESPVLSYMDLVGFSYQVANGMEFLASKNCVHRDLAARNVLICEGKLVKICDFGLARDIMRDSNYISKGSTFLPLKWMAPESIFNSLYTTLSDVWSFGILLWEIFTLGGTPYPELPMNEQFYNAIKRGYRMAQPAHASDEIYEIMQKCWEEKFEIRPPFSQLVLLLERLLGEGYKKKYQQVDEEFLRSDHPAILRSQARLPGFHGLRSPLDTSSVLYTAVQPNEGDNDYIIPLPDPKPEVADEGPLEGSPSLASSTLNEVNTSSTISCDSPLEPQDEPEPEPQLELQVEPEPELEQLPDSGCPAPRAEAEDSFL
Sequence of Lyn (P07948 whole entry): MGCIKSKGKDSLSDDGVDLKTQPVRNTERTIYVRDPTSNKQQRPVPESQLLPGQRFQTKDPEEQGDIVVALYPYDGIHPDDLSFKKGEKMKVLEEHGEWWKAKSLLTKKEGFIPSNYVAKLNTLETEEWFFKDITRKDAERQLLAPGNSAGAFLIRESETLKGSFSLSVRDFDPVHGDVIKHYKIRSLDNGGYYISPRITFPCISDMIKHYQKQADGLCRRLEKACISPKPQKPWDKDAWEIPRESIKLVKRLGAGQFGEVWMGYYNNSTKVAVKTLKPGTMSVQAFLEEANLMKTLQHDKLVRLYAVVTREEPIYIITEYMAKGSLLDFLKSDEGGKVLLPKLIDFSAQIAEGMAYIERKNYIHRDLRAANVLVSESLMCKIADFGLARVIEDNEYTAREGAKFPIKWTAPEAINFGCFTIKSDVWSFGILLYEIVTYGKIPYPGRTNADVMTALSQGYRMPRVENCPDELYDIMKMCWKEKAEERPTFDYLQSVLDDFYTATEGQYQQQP

| Structure (SMILES) | pIC50 (Aurora A) | pIC50 (Ret) | pIC50 (Lyn) | pIC50 (TRKA) | pIC50 (Abl) | pIC50 (KDR) | pIC50 (PDGFRβ) | pIC50 (FLT-1) | pIC50 (FGFR1) | Inhibition of HUV-EC-C Cell Tube Formation (percentage of the control tube count) (HUV-EC-C cells) | inhibition at 10 µM (PLK2) | pIC50 (human PLK4) | pIC50 (Aurora B) | GI50 (SW620 colon cancer cells) | GI50 [1] | GI50 [2] | GI50 [3] | GI50 (A549 lung cancer cells) | GI50 [4] | inhibition at 10 µM (PLK1) |
| --- | --- | --- | --- | --- | --- | --- | --- | --- | --- | --- | --- | --- | --- | --- | --- | --- | --- | --- | --- | --- |
| O=C1Nc2ccccc2/C1=C\c1ccc2c(/C=C/c3ccncc3)n[nH]c2c1 [Example A57, (E)-3-((3-((E)-2-(pyridin-4-yl)vinyl)-1H-indazol-6-yl)methylene)-indolin-2-one] | > 5.30 | > 5.30 | > 5.30 | > 5.30 | > 5.30 | > 5.30 | > 5.30 | > 5.30 | > 5.30 | anti-agiogenic effects at micromolar concentrations; also recorded: inhibition of HUV-EC-C Cell Tube Formation | > 50% | > 5.30 | > 5.30 |  |  |  |  |  |  |  |
| O=C1Nc2ccc(Cl)cc2/C1=C\c1ccc2c(/C=C/c3ccncc3)n[nH]c2c1 [Example A84, (E)-5-chloro-3-((3-((E)-2-(pyridin-4-yl)vinyl)-1H-indazol-6-yl)methylene)indolin-2-one] | > 5.30 |  |  |  |  |  |  |  |  |  | < 50% | > 5.30 | > 5.30 | < 5 µM | < 5 µM | > 50 µM | 5 to 20 µM | > 50 µM | < 5 µM | < 50% |

Source: patent US8765748B2, “Indazolyl, benzimidazolyl, benzotriazolyl substituted indolinone derivatives as kinase inhibitors useful in the treatment of cancer” (University Health Network, priority 2007, dated 2014)
